In the supplement of paper PMC10307832:

Assays:
Assay in all cases: relative viability (nuclei count vs DMSO), 5 days (fraction); higher = more cells survive
BGJ398 + Pemetrexed = compound: CCN1CCN(c2ccc(Nc3cc(N(C)C(=O)Nc4c(Cl)c(OC)cc(OC)c4Cl)ncn3)cc2)CC1 [BGJ398] + Nc1nc2[nH]cc(CCc3ccc(C(=O)N[C@@H](CCC(=O)O)C(=O)O)cc3)c2c(=O)[nH]1 [Pemetrexed] (partner 0.2 µM)
How it was run: (§1)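 Medians of duplicate plates are given as relative viability. That measure is the nuclei count in treated wells divided by the count in vehicle wells. Counts were taken on 4× images of lung cancer cell lines in 1536-well plates, 5 days after pin-tool dosing the day after seeding with one drug alone or a fixed anchor-drug dose plus five library-drug doses (not always all listed) in √10 steps.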

BGJ398 + Foretinib = compound: CCN1CCN(c2ccc(Nc3cc(N(C)C(=O)Nc4c(Cl)c(OC)cc(OC)c4Cl)ncn3)cc2)CC1 [BGJ398] + COc1cc2c(Oc3ccc(NC(=O)C4(C(=O)Nc5ccc(F)cc5)CC4)cc3F)ccnc2cc1OCCCN1CCOCC1 [Foretinib] (partner 0.25 µM)
How it was run: as §1

BGJ398 + Phenformin = compound: CCN1CCN(c2ccc(Nc3cc(N(C)C(=O)Nc4c(Cl)c(OC)cc(OC)c4Cl)ncn3)cc2)CC1 [BGJ398] + N=C(N)NC(=N)NCCc1ccccc1 [Phenformin] (partner 250 µM)
How it was run: as §1

[1] = compound: C1=CC2=NC=CN=C2C=C1/C=C/3\C(=O)NC(=O)S3 + CS(=O)(=O)N1CCN(Cc2cc3nc(-c4cccc5[nH]ncc45)nc(N4CCOCC4)c3s2)CC1 [Pictilisib] (partner 1 µM)
How it was run: as §1

Cell Line UMC-11 has a relative viability (BGJ398 + Pemetrexed; first compound 0.01 µM) of 0.799, a relative viability (BGJ398 + Pemetrexed; first compound 0.03162 µM) of 0.747 and a relative viability (BGJ398 + Pemetrexed; first compound 0.1 µM) of 0.854. For the same cell line, the relative viability (BGJ398 + Pemetrexed; first compound 0.3162 µM) was 0.814, the relative viability (BGJ398 + Pemetrexed; first compound 1 µM) was 0.758 and the relative viability (BGJ398 + Foretinib; first compound 0.01 µM) was 0.962. It also gave a relative viability (BGJ398 + Foretinib; first compound 0.03162 µM) of 1, a relative viability (BGJ398 + Foretinib; first compound 0.1 µM) of 1.14 and a relative viability (BGJ398 + Foretinib; first compound 0.3162 µM) of 0.977. The relative viability (BGJ398 + Foretinib; first compound 1 µM) was 0.924, the relative viability (BGJ398 + Phenformin; first compound 0.01 µM) was 0.325 and the relative viability (BGJ398 + Phenformin; first compound 0.03162 µM) was 0.344. The relative viability (BGJ398 + Phenformin; first compound 0.1 µM) was 0.391, the relative viability (BGJ398 + Phenformin; first compound 0.3162 µM) was 0.341 and the relative viability (BGJ398 + Phenformin; first compound 1 µM) was 0.341. The relative viability ([1]; first compound 0.02 µM) was 0.839, the relative viability ([1]; first compound 0.06325 µM) was 0.914 and the relative viability ([1]; first compound 0.2 µM) was 0.882. The relative viability ([1]; first compound 0.6325 µM) was 0.786 and the relative viability ([1]; first compound 2 µM) was 0.952.
